Literature values as cited in US20070265329A1, “Methods for the prevention of acute and delayed chemotherapy-induced nausea and vomiting (CINV)” (priority 2006, published 2007).
Like-named read-outs stand apart in the source and are kept apart here.

Experiments:
delayed onset CINV = details: administered twice a day
[1] = tested on: patients (acute phase CINV); details: over 24 hours (acute phase); study of 233 patients
[2] = tested on: patients following moderately emetogenic chemotherapy
[3] = or 7 days

peak plasma concentrate (oral, 1 mg bid over seven days)	still detectable in the systemic circulation at [3]	Compound	clearance in cancer patients (compared with normal volunteers)	treatment of delayed onset CINV (delayed onset CINV)	complete response (no vomiting, no moderate or severe nausea, no rescue medication) [1]	patients who did not vomit or need additional medication for nausea ([2]; days 2-5 following moderately emetogenic chemotherapy)	patients who did not vomit or need additional medication for nausea ([2]; first day following moderately emetogenic chemotherapy)	most common side effects ([2]; patients taking Aloxi)
6.0 ng/mL	–	CN1C2CCCC1CC(NC(=O)c1nn(C)c3ccccc13)C2 (centres unmarked) [Kytril®, granisetron]	approximately half that of normal volunteers	effective	81%	–	–	–
–	≥ 168 h	O=C1c2cccc3c2[C@H](CCC3)CN1[C@@H]1CN2CCC1CC2 [Aloxi®, palonosetron]	–	–	–	64%	72%	headache and constipation
